Laboratory results as given in article PMC8878317, “Chemogenomics identifies acetyl-coenzyme A synthetase as a target for malaria treatment and prevention” (Cell Chemical Biology, 2022).

Tested on: P. falciparum 3D7 parasites
Test: Metabolomic profiling of compound-treated parasites (LC/MS);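 as to Metabolite data: 3-Phosphoglycerate: Log2 fold change in abundance versus untreated parasite controls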;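 as to Metabolite data: Myo-Inositol: Log2 fold change in abundance versus untreated parasite controls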;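 as to Metabolite data: N-Carbamoyl-L-Aspartate: Log2 fold change in abundance versus untreated parasite controls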;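 as to Metabolite data: Nicotinate: Log2 fold change in abundance versus untreated parasite controls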
Type: cell-based
Design: Metabolite data: dTMP / Metabolite data: GMP / Metabolite data: S-Adenosyl-L-Homocysteine / Metabolite data: 1_3-Bisphosphoglyceric acid: scale not given here
Outline: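 Magnetically purified trophozoites (1×10^8 parasites/mL) recovered 1 h in RPMI 1640, incubated a further 2.5 h, quenched in 90% methanol with labeled aspartate. Extracts analysed by reverse-phase C18 LC with negative-mode Orbitrap MS; peak areas normalized to internal standards, blank-subtracted and averaged by condition.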

## COc1cc2[nH]c(C)c(-c3ccc(Oc4ccc(OC(F)(F)F)cc4)cc3)c(=O)c2cc1Cl [ELQ-300]
  Metabolite data: 1_3-Bisphosphoglyceric acid: 0
  Metabolite data: 2_3-Diphosphoglyceric acid: -0.1098
  Metabolite data: 3-Phosphoglycerate: 0.01477
  Metabolite data: 4-Aminobutyrate: 0.29
  Metabolite data: 4-Phosphopantothenate: -0.3711
  Metabolite data: 4-phosphopantetheine: 0
  Metabolite data: 5-aminopentanoic acid: 0
  Metabolite data: 5-phosphoribosyl-1-pyrophosphate: 0
  Metabolite data: 6-Phospho-D-Gluconate: 0.1987
  Metabolite data: ADP-D-Glucose: -0.03292
  Metabolite data: Acetyl-CoA: -0.7931
  Metabolite data: Acetyllysine: -0.0938
  Metabolite data: Aconitate: 0.3201
  Metabolite data: CDP: -0.9142
  Metabolite data: CDP-Ethanolamine: -0.4266
  Metabolite data: CDP-choline: 0
  Metabolite data: CMP: -0.5539
  Metabolite data: CTP: -0.7898
  Metabolite data: Citrate/Isocitrate: 0.1898
  Metabolite data: Cyclic-AMP: 0.1104
  Metabolite data: Dihydroorotate: 5.061
  Metabolite data: FAD: 0.09303
  Metabolite data: FMN: -1.009
  Metabolite data: Fructose-1,6-Bisphosphate: 0.1196
  Metabolite data: Fumarate: 0.1542
  Metabolite data: GDP: -0.04006
  Metabolite data: GMP: 0.4588
  Metabolite data: GTP: 0.1697
  Metabolite data: Glucose-1/6-Phosphate: 0.2608
  Metabolite data: Glutathione Disulfide: -0.1199
  Metabolite data: Hexose: 0
  Metabolite data: Hydroxyisocaproic acid: 0
  Metabolite data: Indole: 0.2721
  Metabolite data: Ketoleucine: 0
  Metabolite data: L-arginino-succinate: 0
  Metabolite data: Lactate: -0.08432
  Metabolite data: Malate: 0.0586
  Metabolite data: Myo-Inositol: -0.4815
  Metabolite data: N-Acetyl-Glutamate: 0.1479
  Metabolite data: N-Acetyl-L-Alanine: -0.6073
  Metabolite data: N-Acetyl-L-Ornithine: -0.1715
  Metabolite data: N-Carbamoyl-L-Aspartate: 4.761
  Metabolite data: NAD+: 0.09044
  Metabolite data: NADH: 1.43
  Metabolite data: NADP+: -0.1602
  Metabolite data: NADPH: 3.029
  Metabolite data: Nicotinate: 0.05305
  Metabolite data: Octulose 8/1-Phosphate: -0.704
  Metabolite data: Orotate: 0.01858
  Metabolite data: PD: -0.006669
  Metabolite data: PE: -0.3407
  Metabolite data: PEEK: -0.3859
  Metabolite data: Phenol Red: 0
  Metabolite data: Pyroglutamic acid: 0.05668
  Metabolite data: S-Adenosyl-L-Homocysteine: -1.868
  Metabolite data: S-methyl-5'-thioadenosine: -0.1055
  Metabolite data: SD: -0.2791
  Metabolite data: Sedoheptulose Bisphosphate: 0.0682
  Metabolite data: UDP: -1.596
  Metabolite data: UDP-D-Glucose: -0.0232
  Metabolite data: UDP-D-Glucuronate: 0.002049
  Metabolite data: UDP-N-Acetyl-Glucosamine: -0.1795
  Metabolite data: UMP: -0.8903
  Metabolite data: UTP: -1.292
  Metabolite data: a-ketoglutarate: 0.1255
  Metabolite data: acetyl-aspartate: 0
  Metabolite data: arginine: 0
  Metabolite data: asparagine: 0
  Metabolite data: aspartate: 0
  Metabolite data: biotin: 0
  Metabolite data: chlorpropamide: 0
  Metabolite data: coenzyme A: 0
  Metabolite data: dAMP: -0.0907
  Metabolite data: dATP: 0.4618
  Metabolite data: dCDP: -0.107
  Metabolite data: dCMP: -0.1246
  Metabolite data: dCTP: -0.4381
  Metabolite data: dGDP/ADP: -0.01599
  Metabolite data: dGMP/AMP: -0.06466
  Metabolite data: dGTP/ATP: 0
  Metabolite data: dTDP: -1.258
  Metabolite data: dTMP: -1.023
  Metabolite data: dTTP: -1.011
  Metabolite data: folate: 0
  Metabolite data: glucono-lactone: 0
  Metabolite data: glutamate: 0
  Metabolite data: glutamine: 0
  Metabolite data: glutathione: 0
  Metabolite data: histidine: 0
  Metabolite data: hydroxyproline/Aminolevulinate: 0
  Metabolite data: isoleucine: 0
  Metabolite data: leucine: 0
  Metabolite data: maleic acid: 0
  Metabolite data: methionine: 0
  Metabolite data: nicotinamide mononucleotide: 0
  Metabolite data: orotidine-5'-phosphate: 0
